Test: xn = mol fraction of the nth substance listed, in the solute-free solvent

Cl.N=C(N)N + CO + CCCO
solubility (g/100 g solution)
Settings | 278.15 K | 283.15 K | 288.15 K | 293.15 K | 298.15 K | 303.15 K | 308.15 K | 313.15 K | 318.15 K | 323.15 K
x2 = 0.1726 | 9.26 | 10.3 | 11.5 | 12.6 | 13.3 | 14.4 | 15.6 | 17 | 18.2 | 19.9
x2 = 0.4458 | 15.1 | 16.1 | 17.4 | 18.8 | 20.6 | 22 | 23.4 | 25.3 | 26.3 | 28.2
x2 = 0.6523 | 22.2 | 23.4 | 24.9 | 26.3 | 27.8 | 29.2 | 30.7 | 32.4 | 34.1 | 35.6
x2 = 0.8138 | 28.3 | 29.7 | 31.4 | 33.1 | 34.5 | 36.2 | 37.6 | 39.5 | 40.9 | 42.3
x2 = 0.9441 | 33.4 | 35.1 | 36.8 | 38.3 | 40.2 | 42.1 | 43.6 | 45.5 | 47.1 | 48.8

COC(=O)C(C)(C)N=NC(C)(C)C(=O)OC + CO + O
Settings | solubility (g/100 g solution)
252.55 K, x2 = 0.692 | 1.72
252.85 K, x2 = 0.914 | 5.48
252.95 K, x2 = 0.628 | 1.36
253.15 K, x2 = 0.835 | 4.25
253.35 K, x2 = 0.511 | 0.455
253.45 K, x2 = 0.578 | 0.701
254.15 K, x2 = 0.761 | 2.82
254.75 K, x2 = 0.692 | 2.04
255.35 K, x2 = 0.628 | 1.61
255.55 K, x2 = 0.914 | 7.08
255.95 K, x2 = 0.578 | 0.875
255.95 K, x2 = 0.835 | 5.53
256.55 K, x2 = 0.511 | 0.546
256.65 K, x2 = 0.761 | 3.73
257.35 K, x2 = 0.692 | 3.07
257.95 K, x2 = 0.628 | 2.02
258.55 K, x2 = 0.578 | 1.31
259.05 K, x2 = 0.511 | 0.817
259.85 K, x2 = 0.914 | 9.9
260.15 K, x2 = 0.835 | 7.93
260.55 K, x2 = 0.761 | 5.93
261.05 K, x2 = 0.692 | 4.39
261.65 K, x2 = 0.628 | 2.76
262.15 K, x2 = 0.578 | 2.5
262.75 K, x2 = 0.511 | 1.35
263.35 K, x2 = 0.914 | 12.7
263.75 K, x2 = 0.835 | 9.97
263.95 K, x2 = 0.761 | 6.93
264.35 K, x2 = 0.692 | 5.15
264.85 K, x2 = 0.628 | 4.05
265.25 K, x2 = 0.578 | 3.25
265.75 K, x2 = 0.511 | 2.24
265.95 K, x2 = 0.914 | 14.4
266.15 K, x2 = 0.835 | 11.5
266.35 K, x2 = 0.761 | 8.33
267.95 K, x2 = 0.511 | 3.2
268.05 K, x2 = 0.628 | 5.71
268.05 K, x2 = 0.692 | 7.96
268.05 K, x2 = 0.761 | 9.69
268.05 K, x2 = 0.835 | 12.8
268.05 K, x2 = 0.914 | 16.6
268.25 K, x2 = 0.578 | 5.05
273.25 K, x2 = 0.835 | 20.2
273.35 K, x2 = 0.511 | 5.31
273.35 K, x2 = 0.578 | 7.79
273.35 K, x2 = 0.628 | 9.15
273.35 K, x2 = 0.914 | 26.6
273.45 K, x2 = 0.692 | 12.2
273.55 K, x2 = 0.761 | 17.3
275.55 K, x2 = 0.914 | 32
275.65 K, x2 = 0.511 | 6.38
275.65 K, x2 = 0.578 | 8.78
275.65 K, x2 = 0.835 | 25.5
275.75 K, x2 = 0.692 | 16.8
275.75 K, x2 = 0.761 | 20.5
275.85 K, x2 = 0.628 | 12.8
278.15 K, x2 = 0.835 | 32.7
278.15 K, x2 = 0.914 | 38.9
278.25 K, x2 = 0.761 | 27.3
278.35 K, x2 = 0.511 | 7.35
278.35 K, x2 = 0.578 | 10.2
278.35 K, x2 = 0.628 | 16
278.35 K, x2 = 0.692 | 21.6
280.65 K, x2 = 0.914 | 47.1
280.75 K, x2 = 0.692 | 27.6
280.75 K, x2 = 0.761 | 33.4
280.75 K, x2 = 0.835 | 39.1
280.85 K, x2 = 0.628 | 20.5
280.95 K, x2 = 0.578 | 15.1
281.05 K, x2 = 0.511 | 9.61
283.05 K, x2 = 0.578 | 21
283.05 K, x2 = 0.835 | 51.4
283.05 K, x2 = 0.914 | 55.7
283.15 K, x2 = 0.692 | 36.3
283.15 K, x2 = 0.761 | 44.2
283.45 K, x2 = 0.511 | 12.7
283.45 K, x2 = 0.628 | 28.1
285.65 K, x2 = 0.835 | 62.4
285.65 K, x2 = 0.914 | 66.9
285.75 K, x2 = 0.578 | 29.5
285.75 K, x2 = 0.628 | 39
285.75 K, x2 = 0.692 | 48.6
285.75 K, x2 = 0.761 | 56.4
285.85 K, x2 = 0.511 | 19.1
288.15 K, x2 = 0.578 | 42.6
288.15 K, x2 = 0.628 | 55.9
288.25 K, x2 = 0.761 | 71.5
288.25 K, x2 = 0.835 | 75.3
288.25 K, x2 = 0.914 | 78.2
288.35 K, x2 = 0.692 | 65.6
290.65 K, x2 = 0.628 | 77.7
290.65 K, x2 = 0.914 | 86.1
290.75 K, x2 = 0.692 | 81.5
290.75 K, x2 = 0.761 | 83.9
290.75 K, x2 = 0.835 | 85.1
293.15 K, x2 = 0.761 | 91.5
293.15 K, x2 = 0.835 | 91.5
293.15 K, x2 = 0.914 | 91.9
293.25 K, x2 = 0.692 | 91.2
293.35 K, x2 = 0.628 | 91.1

Nc1cccc(S(=O)(=O)c2cccc(N)c2)c1 + CO + O
solubility (g/100 g solution)
Settings | 283.15 K | 288.15 K | 293.15 K | 298.15 K | 303.15 K | 308.15 K | 313.15 K | 318.15 K | 323.15 K | 328.15 K
x2 = 0.05881 | 0.0853 | 0.113 | 0.149 | 0.202 | 0.26 | 0.333 | 0.429 | 0.552 | 0.675 | 0.867
x2 = 0.1233 | 0.182 | 0.244 | 0.31 | 0.4 | 0.526 | 0.654 | 0.83 | 1.04 | 1.28 | 1.59
x2 = 0.1942 | 0.315 | 0.413 | 0.533 | 0.675 | 0.849 | 1.08 | 1.34 | 1.67 | 2.05 | 2.48
x2 = 0.2727 | 0.512 | 0.66 | 0.84 | 1.04 | 1.32 | 1.63 | 2 | 2.41 | 2.93 | 3.56
x2 = 0.3599 | 0.734 | 0.92 | 1.16 | 1.44 | 1.77 | 2.18 | 2.64 | 3.19 | 3.81 | 4.63
x2 = 0.4576 | 0.977 | 1.22 | 1.53 | 1.89 | 2.32 | 2.81 | 3.41 | 4.06 | 4.85 | 5.78
x2 = 0.5675 | 1.28 | 1.57 | 1.95 | 2.42 | 2.93 | 3.58 | 4.23 | 5.08 | 5.95 | 7.08
x2 = 0.6923 | 1.59 | 1.95 | 2.37 | 2.95 | 3.56 | 4.28 | 5.14 | 6.1 | 7.13 | 8.38
x2 = 0.835 | 1.93 | 2.32 | 2.83 | 3.42 | 4.15 | 4.97 | 5.91 | 6.97 | 8.2 | 9.54

— the CheMixHub drug solubility set
